Assay: gradient 5% acetonitrile 3 min, to 50% in 2 min, to 85% in 15 min, held 3 min, 100 µL/min
Details: column: Zorbax Extend-C18 2.1 x 50 mm; eluents: water / acetonitrile, 0.1% formic acid
Procedure, shortened: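 Pure standards were analyzed in mixtures of ~100 molecules using HPLC coupled to a quadrupole time-of-flight mass spectrometer, in both positive and negative ionization mode. Separation used a Zorbax Extend-C18 column (2.1 × 50 mm, 1.8 μm) at 100 μL/min, with water and acetonitrile each containing 0.1% formic acid. Dead and dwell volumes were 40 μL and 900 μL, and data were collected over 3 months. Retention time was read from computationally picked adduct peaks, each inspected manually.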

Structure (SMILES)	RP-LC retention time [s]
Cc1ccsc1C(=O)N1[C@H]2CC[C@@H]1c1cnc(-c3ccccc3)nc1C2	982
Cc1ccc(NC(=O)N2CCc3c(c(-c4nc(C)no4)nn3C)C2)cc1	750
CCN1/C(=C/C(C)=O)Sc2ccc(OC)cc21	845
Cc1ccc(-c2noc(CSc3nc4cc5c(cc4c(=O)n3-c3ccc(F)cc3)OCO5)n2)cc1	1200
Cc1csc(-c2cc(S(=O)(=O)NCC3CC3)cn2CC(=O)N2CCCCC2)n1	905
CC1CCCN(C(=O)C2c3ccccc3CC(=O)N2C)C1 (centres undefined)	748
Cc1nc(-c2ccccc2)oc1CC(=O)N1CCCCCC1	868
CC(Cc1cccc(C(F)(F)F)c1)NCCCc1ccccc1 (centres undefined)	868
COC(=O)c1ccc(C(=O)NCC2CCS(=O)(=O)C2)cc1 (centres undefined)	620
COc1ccc(-n2c(C)nc3ccc(NC(=O)C4CC4)cc3c2=O)cc1	683
CCOc1ccc2nc(C(=O)NC3CC3)cn2n1	697
COc1cc(OC)c(NC(=O)N2CCc3c(c(C(=O)N4CCOCC4)nn3C)C2)cc1Cl	692
Cc1noc(C)c1CNC(=O)c1ccc2c(c1)OCO2	683
COc1ccc(Cl)cc1NS(=O)(=O)c1c(C)sc(C)c1-c1cc(C)[nH]n1	1040
CCCCN(C)c1ccc(NC(=O)CC(C)C)c(C(=O)O)c1	729
COc1ccc2c(c1)C1(CCN(S(=O)(=O)c3ccc(C)cc3)C1)C(=O)N2C (centres undefined)	929
CCn1c(=O)c(N2CCN(S(=O)(=O)c3ccc(Cl)s3)CC2)nc2ccncc21	739
CCN1CCn2c(nc3cc(C(=O)NCC4CCCCC4)ccc32)C1=O	702
COc1ccc(S(=O)(=O)N2C[C@H]3CN(C(=O)Nc4cccc(OC)c4)C[C@@H](C2)O3)cc1	881
Cc1ccc(C)c(NC(=O)C(C)Oc2cc(C(F)(F)F)c3c(C)nn(C)c3n2)c1 (centres undefined)	1040

Structure (SMILES)	RP-LC retention time [s]
CC1=C(c2ccc(F)cc2)S(=O)(=O)N=C1N1CCCN(C(=O)C2CCCC2)CC1	828
CCc1noc(NC(C)=O)c1-c1ccc(C)c(S(=O)(=O)N2CCN(c3ccc(OC)cc3)CC2)c1	919
CCCNC(=O)C1Cc2cc(S(=O)(=O)N3CCCCC3)ccc2N1C(=O)CC (centres undefined)	800
CCn1cnc(S(=O)(=O)N2CCC(C(=O)Nc3ccc4c(c3)OCCO4)CC2)c1	681
Cc1cccc(Oc2nccnc2N2CCC(C(=O)NC(C)c3ccc(C)cc3C)CC2)c1 (centres undefined)	1150
Cc1nn(-c2ccccc2)c2c1N(CC(=O)N1CCN(c3ccccc3)CC1)C(=O)CS2	839
COc1cccc(-c2nc3sc(C(N)=O)c(C)n3c2NC(C)(C)C)c1	743
CCOC(=O)c1c(C)[nH]c(C(=O)N2CCCC(C(=O)NCc3ccco3)C2)c1C (centres undefined)	722
Cc1cc(-c2c(C)sc(C)c2S(=O)(=O)NCC(C)c2ccccc2)n[nH]1 (centres undefined)	1140
CCn1cc(-c2ccc(OC)cc2)cc1C(=O)N1CCCN(C)CC1	627
COC(=O)c1ccc(Oc2cc(C)nc(-n3nc(C)cc3C)n2)cc1	912
COC(=O)c1cc2ccsc2n1CC(=O)Nc1ccc(F)cc1F	949
COc1ccc(C2(C(=O)N3CCCC(c4nc(-c5ccc(NC(C)=O)cc5)no4)C3)CC2)cc1 (centres undefined)	835
CCN1CCn2cc(S(=O)(=O)Nc3cccc(C(=O)OC)c3)cc2C1=O	703
CCCCC(=O)N1c2nc(-c3ccc(F)cc3)nn2C2(CCCCC2)[C@@H]2CCCC[C@@H]21	1210
CCCC(=O)N1CCCC1COc1ccc(C(=O)NC2CC2)cc1 (centres undefined)	717
Cc1cnc(C2CC2)n1C1CCN(S(=O)(=O)c2ccc(C#N)cc2)CC1	660
CC1CCCN(c2ccc(NC(=O)Cc3cccs3)c(C(=O)O)c2)C1 (centres undefined)	685
CCCNc1cc(N2CCC(CCC(=O)Nc3ccc(OC)cc3OC)CC2)ncn1	648

Now from value to compound:

RP-LC retention time [s]	Structure (SMILES)
1000	O=C(NCc1ccc(F)cc1F)c1cnn2c(-c3ccc4c(c3)OCO4)ccnc12
564	O=C(Cn1ncc2c(N3CCN(c4ccccn4)CC3)ncnc21)Nc1ccccc1Cl
661	O=C1NCCc2ccc(NC(=O)C3CC(=O)N(c4ccc(Cl)cc4)C3)cc21 (centres undefined)
596	Cc1cc(N2CCN(C(=O)Cc3ccc(F)cc3)CC2)nc2nncn12
889	Cc1ccc(-c2ccc(N3CCCC(C(=O)NCc4ccc(C(C)C)cc4)C3)nn2)cc1 (centres undefined)
1080	CCc1ccc(Oc2cc(N3CCC(C(=O)NCCCc4ccccc4)CC3)ncn2)cc1
795	CCOC(=O)N1CCC(NC(=O)c2cn(-c3cccc(Cl)c3)nn2)CC1
573	CN1CCN(CCCNC(=O)C2c3ccccc3C(=O)N(C)C2c2cccs2)CC1 (centres undefined)
1080	O=c1ccn(-c2ccc(Cl)cc2)nc1-c1nc(-c2ccc(Br)cc2)no1
816	COc1ccc(-c2nnc(COc3cccc(NC(=O)CNC(=O)Cc4ccccc4)c3)o2)cc1
584	O=C(Cc1cc(-c2ccc(Cl)cc2)on1)NCCC1=CCCCC1
762	CC(=O)N1CCC(C(=O)Nc2cccc(OCc3nnc(-c4ccc(Cl)cc4)o3)c2)CC1
954	C=CCNC(=O)c1nnn(Cc2ccc(Cl)cc2)c1-n1cccc1
988	CCC(C(=O)NCc1cccc(OC)c1OC)n1sc2ccccc2c1=O (centres undefined)
911	COc1ccc(Cc2nc(-c3cccc(-c4ccn[nH]4)c3)no2)cc1
768	COc1ccc(-c2cn3ccn(-c4ccc(OC)cc4)c(=O)c3n2)cc1
682	COc1cccc(-n2cc(C(=O)O)nn2)c1
935	Cc1nn2c(CNS(=O)(=O)Cc3cccc(F)c3)c(-c3ccccc3)nc2s1
581	O=C(NCC1CC1)C1(CCO)CCN(Cc2ccccc2)C1 (centres undefined)
603	CC(C)CC(=O)Nc1ccc2nc(N3CCN(Cc4ccccc4F)CC3)cc(C(=O)O)c2c1
868	O=C(CSC1CCc2ccccc2NC1=O)NCc1ccc(Cl)cc1Cl (centres undefined)
563	O=C(NCc1ccccn1)C(=O)NCC1OCCN1C(=O)c1ccc2c(c1)OCO2 (centres undefined)
830	O=C(Nc1ccccc1NC(=O)c1ccccc1C(F)(F)F)c1ccsc1
826	COc1ccc(C2CC(=O)N(CC(=O)NCC3CCCO3)c3ccccc3S2)cc1 (centres undefined)
699	Cn1cc2c(N3CCSCC3)nc(C(=O)NCc3ccc(N4CCCC4)cc3)nc2n1

RP-LC retention time [s]	Structure (SMILES)
975	c1ccc(CNc2nc(-c3ccccc3)no2)cc1
676	Cc1nn2c(CNC(=O)C(C)Oc3cccc(Cl)c3)c(C)nc2s1 (centres undefined)
830	Cc1ccc(-c2nnc(C3CN(C(=O)C4(c5ccccc5)CC4)CC34CCOCC4)o2)cc1 (centres undefined)
977	Cc1cc(-c2nnc(-c3ccc(F)cc3)o2)c(C)n1CC(=O)Nc1ccccc1
756	O=C(NCc1ccco1)Nc1ccc2c(c1)N(C(=O)c1ccccc1)CC2
717	O=C(N[C@H]1C[C@@H]2C[C@H]1N(C(=O)c1ccccc1Cl)C2)c1ccccc1
694	Cc1ccc(NC(=O)N2CCCC(Cn3c(C4CC4)nc4cccnc43)C2)cc1C (centres undefined)
763	CCC(C(=O)NCCOC)n1nc(C)c2nn(-c3ccccc3)c(C)c2c1=O (centres undefined)
911	Cc1cc(Cl)ccc1OCC(=O)Nc1ccc2c(c1)Sc1ncccc1C(=O)N2C
959	Cn1c(=O)oc2cc(-c3noc(-c4ccc(CS(=O)(=O)c5ccccc5)cc4)n3)ccc21
847	Cc1ccc(-c2csc3c(=O)n(Cc4cc(=O)n5ccccc5n4)cnc23)cc1
721	COc1ccc(C(=O)Nc2cc(-c3cccnc3)no2)cc1
758	COCC(=O)Nc1ccc2c(c1)N(C(=O)c1cccs1)CCC2
568	O=C(NCCCS(=O)(=O)N1CCN(c2ncccn2)CC1)c1ccncc1
691	COc1cccc(C(O)CN2CCN(c3ccccc3C)CC2)c1 (centres undefined)
780	Cc1nn(-c2ccccc2)c2c1N(CCCC(=O)NC1CC1)C(=O)CS2
709	c1ccc(CNc2c(-c3ccccc3)nc3ncccn23)cc1
731	C=CCNC(=O)C1CCCN(C(=O)Nc2ccc(NC(=O)Nc3ccccc3F)cc2)C1 (centres undefined)
611	Cc1nc(COc2ccccc2)sc1C(=O)NCCN(C)C
1150	Cc1cccc(Sc2nccnc2N2CCCC(C(=O)NCc3ccccc3C)C2)c1 (centres undefined)
843	CC1CCC(NC(=O)Cc2csc3nc(-c4ccccc4)cn23)CC1 (centres undefined)
919	Cc1ccc2c(c1)N(S(C)(=O)=O)CCC(C(=O)Nc1cc(Cl)ccc1C)O2 (centres undefined)
954	CSc1ccc(-c2nc3ccc(Cl)cn3c2Nc2ccc(C)cc2)cc1
571	O=C(NCC1CCCO1)C1CCCN(c2ccnc(-c3ccccc3)n2)C1 (centres undefined)
816	O=C(NC1CCc2ccccc21)C1CCCN(c2ncnc3c2oc2ccccc23)C1 (centres undefined)

From the METLIN SMRT retention time set (Domingo-Almenara et al. 2019)
